For 142 molecules, melting point results are on record in a melting point compilation (Tetko et al.).

The conditions of the series: a range is the spread between reports.
As to `CCSC`, the melting point (usually the temperature, or range, at which the solid turns liquid) is -106 °C.
The same measure for `COc1ccccc1-c1ccccc1`: 29 to 31 °C.
`CC(=O)Oc1ccc(C(C)=O)cc1`: the melting point is 53 to 54 °C.
Turning to `O=C(O)c1c(F)cccc1Cl`, the melting point is 158 to 160 °C.
The molecule `CCCCCCCCCCCCCCCC(=O)O` came in with a melting point of 61 to 62.5 °C.
The value for `CCOC(=O)C#CC(=O)OCC` was 1.5 to 2 °C.
In turn, `CCCCOC(=O)CCC` came in with a melting point of -92 to -91.5 °C.
In turn, `BrCc1ccc2ccccc2c1` displayed a melting point of 53 to 56 °C.
The molecule `OCc1ccc(Br)cc1` returned a melting point of 76 to 78 °C.
As for `Cc1ccc(N)cc1`, the melting point fell in the range of 43 to 44 °C.
For `O=C(O)c1ccc([N+](=O)[O-])c(O)c1`, the melting point lay in the range of 230 to 234 °C.
The molecule `C=CCCCCCCCCCCCCCCC` returned a melting point of 11 to 11.5 °C.
For `Oc1ccc(Br)cc1Cl`, the melting point is 49 to 50.5 °C.
On to `C=CCC1CCCC1`, for which the melting point is -111 °C.
In turn, `CNC(C)=O` yielded a melting point of 27 to 28 °C.
In the case of `CCC(C)(O)C#CC(C)(O)CC` (configuration not stated), the melting point is 53 to 54 °C.
The same measure for `CN(C)c1ccc([N+](=O)[O-])cc1`: 164 to 165 °C; for `Brc1ccc(Oc2ccc(Br)cc2)cc1`: 58 to 60.5 °C.
On to `O=C(O)c1c(Cl)cc(Cl)cc1Cl`, for which the melting point was in the range of 162 to 163 °C.
The molecule `c1ccc(C(c2ccccc2)c2ccccc2)cc1` yielded a melting point of 93 to 94 °C.
`Cc1ccc(C(=O)Cl)cc1` showed a melting point of -3 to -2 °C.
The value for `BrCCCCCCCCBr` was 15.5 to 16 °C; that for `Oc1ccc2ccccc2c1` was 122 to 123 °C.
The value for `COc1c(Cl)cc(Cl)cc1Cl` was 61 to 61.5 °C; that for `OC(C(F)(F)F)C(F)(F)F` was -4 to -3 °C; that for `Oc1cc(O)c2ccccc2c1` was 124 to 125 °C.
The value for `Nc1cccc(N)c1` was 63 to 65 °C; that for `O=C(Oc1cccc(OC(=O)c2ccccc2)c1)c1ccccc1` was 116 to 118 °C; that for `COc1ccc(OC)c([N+](=O)[O-])c1` was 71 to 72.5 °C.
Molecule `CCOC(=O)CC#N` returned a melting point of -23 to -22 °C.
In the case of `CNC(=O)Oc1ccccc1OC(C)C`, the melting point is 90 to 91.5 °C.
In the case of `COc1cc(Cl)ccc1C(=O)O`, the melting point lay in the range of 146 to 147 °C.
`O=C(O)c1ccccc1I`: the melting point was in the range of 162 to 163 °C.
The molecule `Cc1ccc(C(=O)O)cc1C` registered a melting point of 165 to 166 °C.
Molecule `CCC1CCCC1C` (configuration not stated) returned a melting point of -106 °C.
The same measure for `ClCCBr`: -18 to -16.7 °C; for `CNc1ccccc1C(=O)OC`: 18 to 19 °C; for `Cc1ccc(NC(=O)c2ccccc2)cc1`: 156 to 158 °C.
Molecule `CCCCC(C)=O` came in with a melting point of -57 to -55.5 °C.
The value for `Nc1cccc(Cl)c1Cl` was 22 to 24 °C; that for `ICCI` was 80 to 83 °C.
`CCOC(=O)C(O)(c1ccccc1)c1ccccc1` displayed a melting point of 30 to 34 °C.
The same measure for `Brc1ccccc1`: -31 to -30.6 °C.
With `C=C(C)CC(C)(C)C`, the melting point was -94 to -93 °C.
Take `COc1cccc([N+](=O)[O-])c1C`: the melting point fell in the range of 53 to 55 °C.
Regarding `O=C1C(Cl)=CC(=NCl)C=C1Cl`, the melting point fell in the range of 66 to 67 °C.
The molecule `OCCOc1ccc2ccccc2c1` showed a melting point of 74 to 76.7 °C.
`CCC#N` registered a melting point of -93 to -92 °C.
With `OCCCCCO`, the melting point is -18 to -16 °C.
For `O=C=Nc1ccc(Cc2ccc(N=C=O)cc2)cc1`, the melting point lay within 37.2 to 38 °C.
With `CCCCCCC(O)CCCC` (configuration not stated), the melting point was -4 to -3.5 °C.
Take `Clc1cc(Cl)c(Cl)nc1Cl`: the melting point is 90.5 to 91 °C.
As for `Nc1cc(Cl)c(Cl)cc1Cl`, the melting point was in the range of 94 to 96.5 °C.
In turn, `CC(=O)O` displayed a melting point of 16.6 to 17 °C.
`c1cc2c3c(c1)CCCN3CCC2` registered a melting point of 35 to 40 °C.
On to `COP(=S)(OC)Oc1ccc(SC)c(C)c1`, for which the melting point was 7 to 7.5 °C.
As for `CCCCCCCCCCCl`, the melting point is -31.3 to -31 °C.
On to `N#Cc1cc(Cl)cc(Cl)c1`, for which the melting point fell in the range of 64 to 66 °C.
`CC=C1CCCC1` showed a melting point of -130 °C.
In turn, `CCCS` had a melting point of -113 °C.
The molecule `O=Cc1ccc(Oc2ccccc2)cc1` gave a melting point of 24.5 to 25 °C.
Consider `COC`, for which the melting point is -142 to -138 °C.
`C1=CCC=CC1`: the melting point was -49.2 to -49 °C.
The molecule `O=[N+]([O-])c1c(Cl)cc(Cl)cc1Cl` displayed a melting point of 71 to 72 °C.
`c1ccc2[nH]c(-c3cscn3)nc2c1` yielded a melting point of 300 °C.
Take `c1ccc(Oc2ccccc2)cc1`: the melting point fell in the range of 26.8 to 28 °C.
Molecule `O=CNc1ccccc1` gave a melting point of 46 to 47 °C.
`O=C(C=Cc1ccccc1)OCc1ccccc1` had a melting point of 35 to 39 °C.
`c1ccncc1` yielded a melting point of -42 to -41.6 °C.
Regarding `O=C(O)[C@@H]1CCCN1C(=O)OCc1ccccc1`, the melting point was 76 to 77 °C.
Molecule `N#Cc1ccc(-c2ccc(C#N)cc2)cc1` displayed a melting point of 234 to 238 °C.
The value for `CC(C)(C)S` was -0.5 to 1 °C; that for `ClC(Cl)Br` was -57 to -55 °C.
With `CCC(C)(C)Cl`, the melting point is -74 to -73 °C.
`ClCc1ccccc1`: the melting point was -45 to -43 °C.
On to `CCCCP(=O)(CCCC)CCCC`, for which the melting point lay in the range of 64 to 67 °C.
`c1ccc(-c2nnc(-c3ccccc3)o2)cc1` displayed a melting point of 139 to 140 °C.
Molecule `CCCCCCCCCCCCCCCCCC(C)=O` yielded a melting point of 55 to 57 °C.
For the molecule `CO`, the melting point is -98 to -97.5 °C.
For the molecule `CC(=O)c1cccc([N+](=O)[O-])c1`, the melting point fell in the range of 78 to 81 °C.
Regarding `O=[N+]([O-])c1ccc(F)c([N+](=O)[O-])c1`, the melting point was in the range of 25.8 to 27 °C.
For `O=C1c2ccccc2C(=O)N1CCBr`, the melting point lay in the range of 82 to 82.5 °C.
The value for `CC1(O)CCCCC1` was 25 to 26 °C.
With `O=[N+]([O-])c1cc(I)c(O)c(I)c1`, the melting point was 153 to 157 °C.
The value for `CC(=O)c1ccc2ccccc2c1` was 53 to 56 °C; that for `COC(=O)c1c[nH]c2ccccc12` was 150 to 151 °C.
As to `C(=Nc1ccccc1)Nc1ccccc1`, the melting point was 138 to 142 °C.
Molecule `CCOC(=O)CCCCCCCCC(=O)OCC` showed a melting point of 2 to 5 °C.
Consider `O=C(O)C(S)C(S)C(=O)O` (configuration not stated), for which the melting point was 193 to 197 °C.
For the molecule `ClC1c2ccccc2CCc2ccccc21`, the melting point fell in the range of 106 to 107 °C.
On to `CC(=O)OO`, for which the melting point is -0.2 to 0.1 °C.
With `Cc1cccc(O)c1`, the melting point is 11 to 12 °C.
The molecule `CCc1ccc(C)cc1C` registered a melting point of -63 to -62.9 °C.
With `Cc1cc(C)cc(N)c1`, the melting point lay in the range of 9.8 to 10 °C.
For `ClC(Br)Br`, the melting point was -22 to -20 °C.
The value for `N#CCCc1ccccc1` was -2 to -1 °C; that for `O=C(O)c1cccc(O)c1O` was 204 to 206 °C.
Take `Cc1nnc(S)s1`: the melting point is 184 to 187 °C.
Molecule `CCCC(N)C(=O)O` (racemic) registered a melting point of 303 to 307 °C.
The molecule `Nc1cccc2cnccc12` yielded a melting point of 128 to 129 °C.
In turn, `CC(=O)Oc1ccc(-c2ccccc2)cc1` came in with a melting point of 88 to 89 °C.
In turn, `COc1cc(C(=O)O)cc(O)c1OC` displayed a melting point of 195 to 196 °C.
Molecule `CCN(CC)c1ccc2c(C)cc(=O)oc2c1` returned a melting point of 70 to 74 °C.
As to `CC(C)CCC(=O)O`, the melting point is -35 to -33 °C.
Molecule `CC(=CC(=O)O)C(=O)O` registered a melting point of 90 to 93.5 °C.
On to `CCc1cccc(C)c1`, for which the melting point was -96 to -95.5 °C.
The same measure for `CCC(C)OC(C)=O` (configuration not stated): -99 to -98.9 °C.
`C=Cc1ccccc1C` yielded a melting point of -69 to -68.5 °C.
As for `CCOc1ccc(CC(=O)O)cc1`, the melting point is 88.5 to 89 °C.
The same measure for `NC(=O)c1ccc(F)cc1`: 156 °C; for `O=C1c2ccccc2C(=O)c2cc(Cl)ccc21`: 209 to 211 °C.
For the molecule `C=C(C)c1ccc(C(=C)C)cc1`, the melting point was 63.5 to 66 °C.
`C=CCI`: the melting point was -99.3 to -99 °C.
`O=C(O)c1cc(F)cc(F)c1` had a melting point of 121 to 122 °C.
In turn, `c1ccc2cc3c(ccc4ccccc43)cc2c1` showed a melting point of 158 to 160 °C.
`OCCCCCCCCCCO` yielded a melting point of 72 to 74 °C.
As for `CCCC=C(C)C`, the melting point is -130 °C.
`CCCCCCCCCCCCCC(=O)O` registered a melting point of 53.9 to 55.1 °C.
`CCCCCCCCCCCCCCCCCCCCC`: the melting point lay in the range of 39 to 41 °C.
`CC1CO1` (configuration not stated) gave a melting point of -112 °C.
The same measure for `C=CC(=C)C`: -146 °C; for `O=C(O)c1c(F)c(F)c(F)c(F)c1F`: 101 to 102 °C.
As for `S=C1NCCS1`, the melting point lay within 105 to 106 °C.
In the case of `BrCCCCCCBr`, the melting point was -2.3 to 2 °C.
`COC(=O)c1ccccc1` registered a melting point of -15 to -12 °C.
In turn, `N#CC1=C(C#N)C(=O)C(Cl)=C(Cl)C1=O` came in with a melting point of 214 to 215 °C.
As for `O=C1c2ccccc2C(=O)c2ccccc21`, the melting point lay in the range of 284 to 286 °C.
As for `N#CSCc1ccccc1`, the melting point lay in the range of 42 to 43 °C.
`O=Cc1cc(Cl)cc(Cl)c1` showed a melting point of 63 to 68 °C.
Molecule `O=C1CCO1` returned a melting point of -34 to -33.4 °C.
Turning to `Oc1c(Cl)ccc(Cl)c1Cl`, the melting point lay in the range of 56 to 58 °C.
`O=C1Cc2ccccc2C(=O)O1`: the melting point is 142 to 143 °C.
Molecule `Clc1cc(Cl)c(-c2ccccc2)cc1Cl` displayed a melting point of 76 to 78 °C.
Regarding `O=Cc1cc(Br)cc(Br)c1O`, the melting point fell in the range of 83 to 86 °C.
As to `Cc1ccc(Cc2ccc(C)cc2)cc1`, the melting point lay in the range of 28 to 29 °C.
`Cc1cccc(C(C)C)c1`: the melting point was -64 to -63.7 °C.
Regarding `Cc1ccc(Cl)cc1[N+](=O)[O-]`, the melting point was 36 to 39 °C.
For `COc1ccc(C(=O)O)c(OC)c1OC`, the melting point lay in the range of 100 to 101 °C.
Molecule `C1CN2CCN1CC2` yielded a melting point of 158 to 159 °C.
The same measure for `Oc1ccccc1I`: 38.5 to 43 °C; for `CC(C)(C)CO`: 50 to 54 °C.
In turn, `O=[N+]([O-])c1ccc(Oc2ccc(Cl)cc2Cl)cc1` returned a melting point of 70 to 70.5 °C.
